The values below come from PubChem BioAssay AID1845228.

The conditions of this data set: pampa; 60.0 min; 50.0 µM.
As a reminder, the Papp is the rate of passage across a membrane or cell layer, normalised by area and donor concentration. The low end stands for poor permeation, the high end for ready permeation. For the compound `CC(Oc1ccccc1)C(=O)N[C@@H]1C(=O)N2[C@@H]1SC(C)(C)[C@@H]2C(=O)O` (some centres not stated), the Papp is 25 ×10⁻⁶ cm/s.

`O=C(NC1CCC(O)CC1)c1ccc(-c2ncc3cnc(-c4ccccc4)cn23)cc1` (configuration not stated) registered a Papp of 35 ×10⁻⁶ cm/s.

`O=C1NC(=O)C(c2ccccc2)(c2ccccc2)N1` registered a Papp of 42 ×10⁻⁶ cm/s.

Turning to `O=C(O)c1cc2ccccc2c(Cc2c(O)c(C(=O)O)cc3ccccc23)c1O`, the Papp is 3 ×10⁻⁶ cm/s. This Papp is about 14-fold lower than that of the compound before.

Regarding `NC(=O)NCC(=O)N[C@H]1CC[C@H](Nc2nccc(-c3ccncc3)n2)C1`, the Papp was < 1 ×10⁻⁶ cm/s.

As for `NC(=O)[C@H](Cc1ccccc1)NC(=O)[C@H](Cc1ccccc1)NC(=O)[C@@H]1CCCN1C(=O)[C@@H](N)Cc1ccc(O)cc1`, the Papp was < 1 ×10⁻⁶ cm/s.

With `COc1cccc(-c2csc3ncnc(Sc4nnnn4C)c23)c1`, the Papp was determined as 219 ×10⁻⁶ cm/s.

`Cc1oc(=O)oc1COC(=O)N1CC[C@@H](N2CC/C(=C\C3=C(C(=O)O)N4C(=O)[C@@H](NC(=O)/C(=N/O)c5nsc(N)n5)[C@H]4SC3)C2=O)C1` yielded a Papp of 3 ×10⁻⁶ cm/s.

Compound `O=C(C[C@@H]1NCCC[C@H]1O)Cn1cnc2cc(Br)c(Cl)cc2c1=O` gave a Papp of 43 ×10⁻⁶ cm/s.

Compound `O=C(Nc1cccnc1)c1cccs1` returned an apparent permeability coefficient (Papp) of 10 ×10⁻⁶ cm/s. Compared with the last compound, the Papp is about 4.3-fold lower.

`CC#CCC(C)[C@H](O)/C=C/[C@@H]1[C@H]2c3cccc(CCCC(=O)O)c3O[C@H]2C[C@H]1O` (some centres not stated): the Papp was < 1 ×10⁻⁶ cm/s.

In turn, `O=C(O)C[C@H]1CCc2c1[nH]c1ccc(OCc3ccc(C4CCCC4)c(C(F)(F)F)c3)cc21` showed a Papp of 46 ×10⁻⁶ cm/s.

The compound `CC(Cc1ccc2c(c1)OCO2)NCC(O)c1ccc(O)c(O)c1` (configuration not stated) came in with a Papp of 6 ×10⁻⁶ cm/s.

Regarding `CCCC(C)(COC(N)=O)COC(=O)NC(C)C` (configuration not stated), the apparent permeability coefficient (Papp) was found to be 11 ×10⁻⁶ cm/s.

On to `O=C(NCC1(N2CCN(c3ccccc3)CC2)CCOCC1)c1cccnc1Sc1ccccc1`, for which the Papp was found to be 207 ×10⁻⁶ cm/s.

`Cn1nnnc1Sc1ncnc2scc(-c3cccc(C#N)c3)c12` returned a Papp of 76 ×10⁻⁶ cm/s.

With `O=C(Nc1ncc([N+](=O)[O-])s1)c1ccccc1O`, the Papp worked out at 8 ×10⁻⁶ cm/s.

For `Cn1nnnc1Sc1ncnc2scc(-c3cccc4ccccc34)c12`, the apparent permeability (Papp) is 265 ×10⁻⁶ cm/s.

The compound `O=C(CCCN1CCC(O)(c2ccc(Cl)cc2)CC1)c1ccc(F)cc1` had a Papp of 217 ×10⁻⁶ cm/s.

`COCCn1cnc2c(c(-c3ccccc3)cn2Cc2ccccc2)c1=N` came in with a Papp of 139 ×10⁻⁶ cm/s.

Consider `CCN(CC)CCNc1ccc2ncn3c4ccc(O)cc4c(=O)c1c23`, for which the Papp was 17 ×10⁻⁶ cm/s.

`CC(=O)Nc1cccc(-n2c(=O)n(C3CC3)c(=O)c3c(Nc4ccc(I)cc4F)n(C)c(=O)c(C)c32)c1` returned a Papp of 259 ×10⁻⁶ cm/s.

`N=c1c2c(-c3ccccc3)cn(Cc3ccccc3)c2ncn1CCN`: the Papp came out at 131 ×10⁻⁶ cm/s.

`CO/N=C(\C(=O)N[C@@H]1C(=O)N2C(C(=O)OCOC(=O)C(C)(C)C)=C(/C=C\c3scnc3C)CS[C@H]12)c1csc(N)n1`: the apparent permeability (Papp) is 11 ×10⁻⁶ cm/s. This Papp is about 12-fold lower than that of the compound before.

`O=C(N[C@@H](CO)[C@H](O)c1ccc([N+](=O)[O-])cc1)C(Cl)Cl` registered a Papp of 3 ×10⁻⁶ cm/s.

The compound `Nc1nc(/C(=C/CC(=O)O)C(=O)N[C@@H]2C(=O)N3C(C(=O)O)=CCS[C@H]23)cs1` displayed a Papp of 18 ×10⁻⁶ cm/s.

For the compound `CC(C)(C)C(=O)OCOC(=O)C1N2C(=O)CC2S(=O)(=O)C1(C)C` (configuration not stated), the Papp is 37 ×10⁻⁶ cm/s. This Papp is about 2.1-fold higher than that of the compound before.

On to `Cc1ccnc2c1NC(=O)c1cccnc1N2C1CC1`, for which the Papp is 26 ×10⁻⁶ cm/s. The Papp values of the last two compounds are within 1.5-fold of each other.

For `Cn1nnnc1Sc1ncnc2scc(-c3ccc(Br)cc3)c12`, the Papp is 159 ×10⁻⁶ cm/s.

For the compound `CCO/N=C(\C(=O)N[C@@H]1C(=O)N2C(C(=O)O)=C(Sc3nc(-c4cc[n+](C)cc4)cs3)CS[C@H]12)c1nsc(NP(=O)(O)O)n1`, the Papp worked out at 2 ×10⁻⁶ cm/s. Compared with the last compound, the Papp is about 80-fold lower.

With `NCc1ccccc1CC(=O)N[C@@H]1C(=O)N2C(C(=O)O)=C(CSc3nnnn3CC(=O)O)CS[C@H]12`, the Papp was < 1 ×10⁻⁶ cm/s.

On to `Nc1ccc(/C=C/C(=O)NCc2cc3cc(-c4ccc(C(=O)N5CCC(F)(F)CC5)cc4)cc(-c4ccc(F)cc4)c3o2)cn1`, for which the Papp is < 1 ×10⁻⁶ cm/s.

As to `N=c1c2c(-c3ccccc3)cn(Cc3ccccc3)c2ncn1C(CO)(CO)CO`, the apparent permeability (Papp) was > 300 ×10⁻⁶ cm/s.

For the compound `C=CC1=C(C(=O)O)N2C(=O)[C@@H](NC(=O)/C(=N/OCC(=O)O)c3csc(N)n3)[C@H]2SC1`, the Papp came out at 4 ×10⁻⁶ cm/s.

`Cn1nnnc1Sc1ncnc2scc(-c3ccc[nH]3)c12` showed a Papp of 126 ×10⁻⁶ cm/s.

As for `COc1ccc(Cn2c(-c3ccccc3)c(-c3ccccc3)c3c(=N)n(N4CCOCC4)cnc32)cc1`, the Papp stood at 160 ×10⁻⁶ cm/s.

Regarding `COc1ccc(S(=O)(=O)Nc2cccnc2Nc2ccc(O)cc2)cc1`, the Papp worked out at 13 ×10⁻⁶ cm/s. This Papp lies about 12-fold lower than the previous one.

`CC1(C)S[C@@H]2[C@H](NC(=O)C3(N)CCCCC3)C(=O)N2[C@H]1C(=O)O` gave a Papp of 54 ×10⁻⁶ cm/s. This Papp lies about 4.2-fold higher than the previous one.

Consider `N=c1c2c(-c3ccccc3)cn(Cc3ccccc3)c2ncn1[C@@H]1CCCC[C@H]1N`, for which the Papp came to 101 ×10⁻⁶ cm/s.

In turn, `COCCn1cnc2c(c(-c3ccccc3)c(-c3ccccc3)n2Cc2ccc(OC)cc2)c1=N` displayed a Papp of 231 ×10⁻⁶ cm/s.

As for `CCCN(CCC)CCc1cccc2c1CC(=O)N2`, the Papp came to 34 ×10⁻⁶ cm/s.

Take `CCO[C@@H]1OC(=O)C[C@@H]1NC(=O)[C@@H]1CCCN2C(=O)CC[C@H](NC(=O)c3nccc4ccccc34)C(=O)N12`: the Papp is < 1 ×10⁻⁶ cm/s.
